According to patent publication US11266649B2, “Pharmaceutical formulations” (Corvus Pharmaceuticals, Inc., priority 2018, dated 2022):

Legend:
[1] = Storage stability: Total Impurities by stability-indicating HPLC; format: physicochemical; settings: API (Formula (III)) itself, reference
[2] = Particle size distribution by laser diffraction, before and after jet-mill micronization; format: physicochemical
Experimental: “Particle size distribution” or “PSD” or “size distribution” refers to the size of particles present in their relative proportions in a sample, as measured by laser diffraction spectroscopy. In aspects, the particle size distribution refers to the particle size distribution of all the drug particles in the composition. The particle size distribution of a sample is measured by laser diffraction spectroscopy. Laser diffraction spectrometers are commercially available as, e.g., MASTERSIZER® 3000 from Malvern Instruments Ltd, and HORIBA® LA-950 by Horiba Instruments, Inc., Irvine Calif. For laser diffraction spectroscopy, particle size distribution is generally described by D values, such as D90. In aspects, the laser diffraction spectroscopy can be analyzed by the Fraunhofer theory. In aspects, the laser diffraction spectroscopy can be analyzed by the Mie scattering theory. In aspects, the laser diffraction spectroscopy can be analyzed by a combination of the Fraunhofer theory and the Mie scattering theory.
Formulation (III) was micronized using a Sturtevant SDM jet mill with a 2 inch diameter loop. The process parameters were: inlet air pressure 120 psi; grind chamber 100 psi; nozzle air pressure 80 psi; manual fee rate.
Formulation (III) was micronized using a Sturtevant SDM jet mill with a 4 inch diameter loop. The process parameters were: inlet air pressure 120 psi; grind chamber 100 psi; nozzle air pressure 80 psi; manual fee rate.

[3] = 1 pass micronization, jet mill 2 inch diameter loop
[4] = 1 pass micronization, jet mill 4 inch diameter loop
[5] = 2 pass micronization, jet mill 4 inch diameter loop
[6] = Before micronization, Table 1A, jet mill 2 inch diameter loop
[7] = Before micronization, Table 1B, jet mill 4 inch diameter loop

Cc1ccc(-c2nc(N)nc3c2nnn3Cc2cccc(COC3CCOC3)n2)o1 (centres unmarked) [Formula (III)]
Total Impurities [1]: 0.80% | Total Impurities ([1]; listed as API): 0.80% | D10 [2, 3]: 0.9 microns | D50 [2, 3]: 3.3 microns | D90 [2, 3]: 8.2 microns | D10 [2, 4]: 1.1 microns | D50 [2, 4]: 4.3 microns | D90 [2, 4]: 20.2 microns | D10 [2, 5]: 0.9 microns | D50 [2, 5]: 3.1 microns | D90 [2, 5]: 8.3 microns | D10 [2, 6]: 2.3 microns | D50 [2, 6]: 8.6 microns | D90 [2, 6]: 31.1 microns | D10 [2, 7]: 2.3 microns | D50 [2, 7]: 8.6 microns | D90 [2, 7]: 31.1 microns
